Measured values taken from US20260021051A1, “PHARMACEUTICAL FORMULATIONS” (VIVUS LLC, priority 2015, published 2026).
Where two headings read alike, the source gives them in different places.

Key:
[1] = Solubility of tacrolimus in vehicles (shaken, filtered, HPLC); format: physicochemical
Procedure: The solubility of tacrolimus was obtained in Maisine® 35-1, sesame oil, Miglyol® 812, Caspmul MCM EP, Labrafil M 2125 CS, peceol, Capryol 90, Lauroglycol FCC, Span 80, caprylic acid, Transcutol HP, Tween 80 (polysorbate 80), Kolliphor EL (Cremophor EL), labrasol, Vitamin E TPGS, PEG 400, propylene glycol, ethanol, Phosal 50 PG, triethylcitrate, and PEG 3350. In general, tacrolimus (˜15 mg) was added to approximately 250 mg of the vehicles. After the first addition of the API, the mixtures were shaken in a temperature-controlled vortex mixer for 24 hours at 25° C. (50° C. for Vitamin E TPGS and 60° C. for PEG 3350) then examined for solid residues. If no residue was observed, further addition of API was performed until the total API added was ˜55 mg. After the final addition, samples were further shaken at temperature for at least 24 h. After the incubation, each sample was examined visually for solid residues. Suspensions were filtered using a centrifuge tube with 0.45 μm PVDF membrane filter (Millipore Durapore®). The thick filtrate was weighed in to a 5-mL volumetric flask and diluted to mark with the HPLC diluent. Biphasic mixtures were vialed, spun on a centrifuge, and the clear solution was separated from the oily phase. All samples were prepared protected from light.

[2] = cited from earlier work
[3] = cited from earlier work; remark: listed apart in the source

solubility ([1]; in Capryol 90, 25° C.): > 56 mg of API per gram of solvent
solubility ([1]; in Caspmul MCM EP, 25° C.): > 56 mg of API per gram of solvent
solubility ([1]; in PEG 400, 25° C.): > 56 mg of API per gram of solvent
solubility ([1]; in PEG 3350, 60° C.): > 56 mg of API per gram of solvent
solubility ([1]; in Phosal 50 PG, 25° C.): > 56 mg of API per gram of solvent
solubility ([1]; in Vitamin E TPGS, 50° C.): > 56 mg of API per gram of solvent
solubility ([1]; in caprylic acid, 25° C.): > 56 mg of API per gram of solvent
solubility ([1]; in ethanol, 25° C.): > 56 mg of API per gram of solvent
solubility ([1]; in labrasol, 25° C.): > 56 mg of API per gram of solvent
solubility ([1]; in propylene glycol, 25° C.): > 56 mg of API per gram of solvent
solubility ([1]; in triethylcitrate, 25° C.): > 56 mg of API per gram of solvent
Compound: C=CC[C@@H]1/C=C(\C)C[C@H](C)C[C@H](OC)[C@H]2O[C@@](O)(C(=O)C(=O)N3CCCC[C@H]3C(=O)O[C@H](/C(C)=C/[C@@H]3CC[C@@H](O)[C@H](OC)C3)[C@H](C)[C@@H](O)CC1=O)[C@H](C)C[C@@H]2OC (relative stereo) [Tacrolimus, [3S-[3R*[E(1S*,3S*,4S*)], 4S*,5R*,8S*,9E,12R*,14R*,15S*,16R*,18S*, 19S*,26-aR*]]-5,6,8,11,12,13,14,15,16,17,18,19,24,25,26a-hexadecahydro-5,19-dihydroxy-3-[2-(4-hydroxy-3-methoxycyclohexyl)-1-methylethenyl]-14,16-dimethoxy-4,10,12,18-tetramethyl-8-(2-propenyl)-15,19-epoxy-3H-pyrido [2,1-c][1,4]oxazacyclotricosine-1,7,20,21 (4H,23H)-tetrone, monohydrate]
solubility ([2]; in chloroform): very soluble
solubility ([2]; in ethanol): freely soluble
solubility ([2]; in methanol): very soluble
solubility ([2]; in water): practically insoluble
time to peak concentration ([3]; after oral administration): 0.5 to 4 h
volume of distribution (VolD) based on plasma ([3]; based on plasma): 5 to 65 L/kg of body weight
half-life for distribution ([3]; in vivo): 54 min
protein binding ([3]; in vivo): 75 to 99%
whole blood concentrations relative to plasma concentrations ([3]; in vivo): 12 to 67 times
bioavailability of the oral dosage form (range) ([3]; oral): 5 to 65%
mean bioavailability of the oral dosage form ([3]; oral): about 27%
